From ChEMBL document CHEMBL1201862, “PubChem BioAssay data set” (2004)
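Five compound concentrations were applied to cells in 96-well plates for 48 hours; endpoints were derived by simple linear interpolation of the resulting dose-response curve. GI50: concentration for 50% inhibition of growth.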 Activity calls are given as the source filed them. Cut-off read from the data, not from the text of the source: active = GI50 up to about 1.1 µM and inactive = higher.

Key:
Experiment in all cases: NCI anticancer screen, dose series, 48 h
[1] = tested on: XF498
[2] = tested on: DLD-1
[3] = tested on: SNB-78
[4] = tested on: DMS-273
[5] = tested on: LXFL 529
[6] = tested on: KM-20L2
[7] = tested on: M19-MEL
[8] = tested on: HOP-18
[9] = tested on: RXF 631

SMILES | GI50 [1] | GI50 [2] | GI50 [3] | GI50 [4] | GI50 [5] | GI50 [6] | GI50 [7] | GI50 [8] | GI50 [9]
CCc1cccc(C)c1NC(=O)CC1C(=O)Nc2ccccc2[S+]1[O-] (centres undefined) | 46.5 µM (inactive) | 47.6 µM (inactive) | 45.2 µM (inactive) | 42.2 µM (inactive) | 66.1 µM (inactive) | 30.5 µM (inactive) | – | – | –
COc1cc2c(cc1O)CN1CCC23C=C[C@@H](O)CC13 (some centres undefined) | – | 63 µM (inactive) | > 100 µM (inactive) | 57.4 µM (inactive) | 51.3 µM (inactive) | > 100 µM (inactive) | 38.1 µM (inactive) | 71 µM (inactive) | –
C/C(CC(=O)Nc1ccc(Cl)c(Cl)c1)=N/NC(=O)C[N+](C)(C)C | > 100 µM (inactive) | 29.2 µM (inactive) | > 100 µM (inactive) | 38.8 µM (inactive) | > 100 µM (inactive) | > 100 µM (inactive) | > 100 µM (inactive) | > 100 µM (inactive) | –
CC1=C(C(=O)CC(=O)C(=O)NC2C3CC4CC(C3)CC2C4)Sc2ccccc2N1 (centres undefined) | > 100 µM (inactive) | > 100 µM (inactive) | > 100 µM (inactive) | > 100 µM (inactive) | > 100 µM (inactive) | > 100 µM (inactive) | > 100 µM (inactive) | 86.1 µM (inactive) | –
COC(=O)C(CCCN1C(=O)c2ccccc2C1=O)C(=O)OC | > 100 µM (inactive) | > 100 µM (inactive) | > 100 µM (inactive) | > 100 µM (inactive) | > 100 µM (inactive) | > 100 µM (inactive) | > 100 µM (inactive) | > 100 µM (inactive) | –
O=C1C(c2ccc([N+](=O)[O-])cc2)=[N+]([O-])c2ccccc21 | – | 33.9 µM (inactive) | 22.5 µM (inactive) | > 10 µM (inactive) | 19.8 µM (inactive) | – | 17.2 µM (inactive) | < 0.01 µM (active) | –
O=C1C=CC(=O)c2cc(Sc3ccccc3)c(=O)ccc21 | – | 13.6 µM (inactive) | 20 µM (inactive) | 18.9 µM (inactive) | 7.43 µM (inactive) | 20.2 µM (inactive) | 16.6 µM (inactive) | 17.9 µM (inactive) | 21.7 µM (inactive)
Cc1ccc(S(=O)(=O)OCC23CCC(CC2)C2CC23)cc1 (centres undefined) | – | 74.1 µM (inactive) | – | 30.1 µM (inactive) | 68.2 µM (inactive) | 56.5 µM (inactive) | 43.2 µM (inactive) | > 100 µM (inactive) | 73.5 µM (inactive)
O=[N+]([O-])c1ccc2nc(/C(=N/Nc3ccccc3)C(O)c3ccc(Cl)cc3Cl)c(O)nc2c1 (centres undefined) | > 100 µM (inactive) | > 100 µM (inactive) | > 100 µM (inactive) | 39 µM (inactive) | – | > 100 µM (inactive) | > 100 µM (inactive) | > 100 µM (inactive) | 50.4 µM (inactive)
COc1ccc(OC2(c3cc(OC)ccc3OC)OC(=O)c3ccccc32)cc1 (centres undefined) | – | > 100 µM (inactive) | > 100 µM (inactive) | > 100 µM (inactive) | > 100 µM (inactive) | > 100 µM (inactive) | > 100 µM (inactive) | > 100 µM (inactive) | > 100 µM (inactive)
COC(=O)C1C=CCON2CCc3c(n(C)c4ccccc34)C12 (centres undefined) | 42.1 µM (inactive) | > 100 µM (inactive) | > 100 µM (inactive) | > 100 µM (inactive) | > 100 µM (inactive) | > 100 µM (inactive) | > 100 µM (inactive) | – | > 100 µM (inactive)
Cn1c(=O)nc2n(-c3ccc(Cl)cc3)c(-c3ccccc3)c(-c3ccccc3)nc-2c1=O | 12.9 µM (inactive) | 34 µM (inactive) | 49.2 µM (inactive) | 22.6 µM (inactive) | 27.7 µM (inactive) | 30.2 µM (inactive) | – | 57.9 µM (inactive) | 28.3 µM (inactive)
COc1cc(C2c3cc4c(cc3[C@@H](OCCN)[C@H]3COC(=O)C23)OCO4)cc(OC)c1O (some centres undefined) | < 0.0347 µM (active) | 1.32 µM (inactive) | 3.52 µM (inactive) | – | 0.776 µM (active) | 0.543 µM (active) | 0.196 µM (active) | 1.77 µM (inactive) | –
COc1ccc(-c2cc(=O)c3c(O)c(O)c(OC)cc3o2)cc1O | > 100 µM (inactive) | > 100 µM (inactive) | – | > 100 µM (inactive) | > 100 µM (inactive) | > 100 µM (inactive) | > 100 µM (inactive) | > 100 µM (inactive) | 92 µM (inactive)
Cc1ccccc1NC(=O)c1cc2cc(/N=N/c3ccccc3C(=O)O)ccc2oc1=O | – | 16.7 µM (inactive) | – | 21 µM (inactive) | – | 16.9 µM (inactive) | 9.38 µM (inactive) | 15 µM (inactive) | –
Cc1noc2cccc(OCc3ccccc3)c12 | 56.9 µM (inactive) | 64.9 µM (inactive) | 80.5 µM (inactive) | 52 µM (inactive) | 49 µM (inactive) | 65.5 µM (inactive) | 60.1 µM (inactive) | > 100 µM (inactive) | 85.7 µM (inactive)
Cc1nc2c(n1Cc1ccc(Cl)cc1)C(=O)c1ccccc1C2=O | 36.4 µM (inactive) | 4.18 µM (inactive) | 9.42 µM (inactive) | 2.62 µM (inactive) | 5.47 µM (inactive) | 8.05 µM (inactive) | 11.7 µM (inactive) | – | –
CC1=C2C(=CC(C)(C)[C@@H]2O)C(=O)[C@](C)(O)C12CC2 [ILLUDIN M] | 0.01 µM (active) | 0.0138 µM (active) | – | 0.01 µM (active) | 0.022 µM (active) | 0.0156 µM (active) | 0.0246 µM (active) | 0.0313 µM (active) | –
COc1cc2c(c(OC)c1OC)C(=O)NCCC2 | > 100 µM (inactive) | > 100 µM (inactive) | > 100 µM (inactive) | > 100 µM (inactive) | > 100 µM (inactive) | > 100 µM (inactive) | > 100 µM (inactive) | > 100 µM (inactive) | –
CN(C)CCC(/C=C/c1ccccc1)=N\Nc1ccc(Cl)cc1 | – | 2.88 µM (inactive) | 6.07 µM (inactive) | 2.11 µM (inactive) | 2.84 µM (inactive) | 1.56 µM (inactive) | 6.78 µM (inactive) | 4.69 µM (inactive) | –
CCOC(OC1=C(C#N)CCCC1)C(C)[Se]c1ccccc1 (centres undefined) | 23.6 µM (inactive) | 36.2 µM (inactive) | > 100 µM (inactive) | 16.3 µM (inactive) | 22.7 µM (inactive) | 62.7 µM (inactive) | 29.2 µM (inactive) | 38.5 µM (inactive) | –
COC(=O)[C@H]1[C@H]2C[C@@H]3c4[nH]c5cc(OC)ccc5c4CCN3C[C@H]2C[C@@H](OC(=O)c2cc(OC)c(OC)c(OC)c2)[C@@H]1OC [RESERPINE] | – | 30.5 µM (inactive) | – | 20 µM (inactive) | 14.4 µM (inactive) | 16.7 µM (inactive) | 20.9 µM (inactive) | – | –
CCCCCCCCCCCCCC(=O)OC1C(CO)OC(=O)C1O (centres undefined) | > 100 µM (inactive) | > 100 µM (inactive) | > 100 µM (inactive) | > 100 µM (inactive) | > 100 µM (inactive) | > 100 µM (inactive) | > 100 µM (inactive) | > 100 µM (inactive) | –
COc1cc([C@H]2c3cc4c(cc3[C@H](NCc3ccc([N+](=O)[O-])cc3)C3COC(=O)[C@H]32)OCO4)cc(OC)c1O (some centres undefined) | 3.32 µM (inactive) | 2.7 µM (inactive) | 5.94 µM (inactive) | 0.661 µM (active) | 5.07 µM (inactive) | 2.48 µM (inactive) | 3.85 µM (inactive) | – | –
CCCCOC(=O)NC(=O)c1cn(C2CCCCC2)c(=O)[nH]c1=O | 54.7 µM (inactive) | 36.9 µM (inactive) | 36.6 µM (inactive) | > 100 µM (inactive) | 29 µM (inactive) | 76 µM (inactive) | 71.4 µM (inactive) | 19.4 µM (inactive) | –
C=C1C(C)C2C(Cc3ccccc3)NC(=O)C23C(OC(C)=O)/C=C/C(C)(O)CC(C)C/C=C/C3C1O (centres undefined) | 0.973 µM (active) | 0.0796 µM (active) | 0.0454 µM (active) | 6.1 µM (inactive) | – | 0.112 µM (active) | 49.1 µM (inactive) | 0.0324 µM (active) | –
O=C(O)C1=C(C(=O)Nc2ccc(NC(=O)C3=C(C(=O)O)C4C=CC3C4)cc2)C2C=CC1C2 | > 100 µM (inactive) | > 100 µM (inactive) | > 100 µM (inactive) | > 100 µM (inactive) | > 100 µM (inactive) | > 100 µM (inactive) | > 100 µM (inactive) | > 100 µM (inactive) | –
